From patent US10028992B2, “Methods of treating muscular dystrophy” (BOARD OF REGENTS OF THE NEVADA SYSTEM OF HIGHER EDUCATION …, priority 2012, dated 2018)

Tested on: α7 integrin promoter
Test: muscle cell-based assay: α7βgal+/− myoblasts/myotubes, LacZ reporter, β-galactosidase cleavage of FDG
Set-up: species or system mouse
Conditions: Myotubes; for Results in a α7+/− β-galactosidase assay, Myotubes, 0.5 uM: compound at 0.5 uM; for Results in a α7+/− β-galactosidase assay, Myotubes, 1 uM: compound at 1 uM; for Results in a α7+/− β-galactosidase assay, Myotubes, 5 uM: compound at 5 uM; for Results in a α7+/− β-galactosidase assay, Myotubes, 10 uM: compound at 10 uM; for Results in a α7+/− β-galactosidase assay, Myotubes, 20 uM: compound at 20 uM; for Results in a α7+/− β-galactosidase assay, Myotubes, 40 uM: compound at 40 uM
How it was run: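 Primary α7βgal+/− mouse myoblasts (LacZ knocked into α7 integrin exon 1, promoter retained), differentiated; promoter activity read as β-galactosidase conversion of non-fluorescent FDG to fluorescein. Hits followed by dose-response, western analysis and myostatin counterscreen.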

Row | Structure (SMILES) | Results in a α7+/− β-galactosidase assay, Myotubes, 0.5 uM | Results in a α7+/− β-galactosidase assay, Myotubes, 1 uM | Results in a α7+/− β-galactosidase assay, Myotubes, 5 uM | Results in a α7+/− β-galactosidase assay, Myotubes, 10 uM | Results in a α7+/− β-galactosidase assay, Myotubes, 20 uM | Results in a α7+/− β-galactosidase assay, Myotubes, 40 uM
1 | Cc1ccsc1-c1nnc(S)n1C1CCCCC1 [drawing 413] | 0.2221 | 0.09759 | 0.1567 | −0.1231 | 0.1272 | −0.178
2 | O=C(N[C@@H](Cc1c[nH]c2ccccc12)C(=O)O)C1CCN(S(=O)(=O)c2cccs2)CC1 [drawing 414] | 0.08394 | 0.03833 | 0.03594 | −0.09429 | 0.01148 | −0.09282
3 | COC(=O)Cn1c(=O)c2c(nc3n2CC(C)CN3Cc2ccccc2)n(C)c1=O (stereo not drawn) [drawing 415] | 0.05467 | 0.04855 | −0.1372 | −0.2301 | 0.01742 | −0.09631
4 | CCOC(=O)c1cc(C(=O)OCC)c(SCc2ccccc2)nc1O [drawing 416] | −0.05564 | −0.06589 | 0.2144 | −0.09676 | −0.147 | −0.37
5 | Oc1nc2ccccc2nc1-c1c[nH]c2ccccc12 [drawing 417] | −0.06072 | −0.2204 | −0.08742 | 0.05064 | −0.4132 | −0.2613
6 | O=C(Nc1cc(-c2nc3ccccc3s2)ccc1Cl)c1ccc2c(c1)OCO2 [drawing 418] | 0.01013 | −0.09877 | 0.05089 | 0.3348 | −0.3294 | −0.3941
7 | Cn1c(-c2ccccc2)cc2ccccc21 [drawing 419] | −0.1946 | −0.1516 | 0.03646 | 0.2623 | −0.2495 | −0.1512
8 | COc1ccc(C(=O)/C=C2\C(=O)Nc3ccccc32)cc1OC [drawing 420] | −0.03323 | −0.07984 | 0.02829 | 0.263 | −0.3062 | −0.184
9 | CC(C(=O)Nc1ccc(C#N)cc1)N(C)CC(=O)Nc1cccc(F)c1 (stereo not drawn) [drawing 421] | 0.03075 | −0.03964 | −0.1345 | 0.2992 | −0.138 | 0.2085
10 | CC(C(=O)Nc1ccc(C#N)cc1)N(C)CC(=O)Nc1cccc(F)c1 (stereo not drawn) [drawing 422] | −0.07067 | −0.1638 | 0.1526 | 0.4825 | −0.1663 | 0.2317
11 | CC1Cc2ccccc2N1C(=O)CSc1nnc(N)s1 (stereo not drawn) [drawing 423] | −0.03474 | −0.1188 | −0.01338 | 0.3723 | −0.1603 | 0.2399
12 | CC(C)(C)NC(=O)NC(=O)CN1CCN(Cc2ccccc2)CC1 [drawing 424] | 0.003071 | −0.04272 | 0.04658 | 0.4408 | −0.2165 | 0.07828
13 | COc1cc(C=O)ccc1OCC(=O)Nc1ccc2c(c1)OCO2 [drawing 425] | −0.1155 | −0.1633 | 0.1998 | 0.4511 | −0.2886 | 0.003215
14 | Cc1ccccc1NC(=O)c1ccc2c(O)c(Sc3ccccc3)c(=O)[nH]c2c1 [drawing 426] | −0.06746 | −0.07688 | −0.09733 | 0.01498 | −0.07909 | −0.1428
15 | Oc1nc(SCc2ccc(Cl)cc2)nc2ccsc12 [drawing 427] | 0.03102 | −0.01338 | −0.1454 | 0.05532 | −0.03447 | −0.1688
16 | CCn1c(=O)c2cc(C(=O)N(C)c3cc(C)ccc3OC)sc2c2ccccc21 [drawing 428] | −0.1274 | −0.01854 | −0.1965 | −0.1001 | −0.31 | −0.8047
17 | CCOC(=O)C1=C(NC(=O)c2ccc(OC)c(S(=O)(=O)N3CCCCC3C)c2)Nc2ccccc2N=C1CC (stereo not drawn) [drawing 429] | −0.08852 | 0.05126 | −0.2482 | −0.1853 | −0.1051 | −0.1944
18 | O=C(NCc1ccccc1)C(c1c(F)cccc1Cl)N(C(=O)c1csnn1)C1CC1 (stereo not drawn) [drawing 430] | 0.2226 | −0.02073 | −0.2107 | −0.07084 | −0.182 | −0.2594
19 | Cc1[nH]c2ccc(F)cc2c1CCN(Cc1ccco1)/C(S)=N/C(C)(C)C [drawing 431] | −0.02866 | −0.1703 | −0.1851 | −0.06955 | −0.543 | −0.807
20 | c1ccc(-c2cc(-c3nc4ccccc4[nH]3)c3ccccc3n2)cc1 [drawing 432] | −0.06598 | −0.05419 | −0.2722 | −0.06437 | −0.3184 | −0.5085
21 | CCC(C)n1nc(O)cc1N (stereo not drawn) [drawing 433] | 0.1351 | −0.05991 | −0.1063 | −0.1016 | −0.1631 | −0.144
22 | Cc1ccc(C(=O)N2CCN(S(=O)(=O)N3CCOCC3)CC2)cc1 [drawing 434] | −0.01141 | −0.169 | 0.007084 | 0.1108 | −0.2209 | 0.1179
23 | Cc1cccc(NC(=O)CN(C)C(=O)c2ccc(-c3ccc(Cl)cc3)o2)c1 [drawing 435] | −0.06415 | −0.0743 | −0.09532 | −0.1682 | −0.3693 | −0.5402
24 | Cc1ccccc1S(=O)(=O)N1C[C@H]2CON(C)[C@H]2C[C@H]1c1cccc(-c2ccccc2)c1 [drawing 436] | 0.01204 | 0.03174 | −0.2012 | −0.2418 | −0.3306 | −0.5892
25 | N#C/C(=C/c1ccc(N2CCOCC2)o1)C(=O)Nc1ccccc1 [drawing 437] | −0.01316 | 0.1058 | −0.1378 | −0.06524 | 0.007978 | −0.03236
